These results are taken from publication PMC4858680, “A platinum-based hybrid drug design approach to circumvent acquired resistance to molecular targeted tyrosine kinase inhibitors” (Scientific Reports, 2016).

Structures are written as SMILES.

One assay deals with ALK (Homo sapiens, UniProt Q9UM73). In words: biochemical. The settings on record: read-out: Percent control.
Assay [1] concerns the target ABL1(E317I)-nonphosphorylated (Homo sapiens, UniProt P00519, F317I). In words: biochemical. The settings on record: read-out: Percent control.
The target in assay [2] is ABL1(E255K)-phosphorylated (Homo sapiens, UniProt P00519, E255K). In words: biochemical. The settings on record: read-out: Percent control.
The test system of another assay is K562 Ima1.0. In words: Anticancer activity in imatinib-selected resistant K562 subline. The format is cell-based. To be noted: read-out: Anticancer activity (IC50) K562 Imatinib selected (K562 Ima1.0); Bcr-Abl amplification.
In a further assay the target is T1, TIE1 (Homo sapiens, UniProt P35590).
T1 construct: purchased DiscoveRx (KINOMEscan service)
The format is binding. The settings on record: 10 μM.

Another assay concerns HEK293 Mock transfected. In words: Anticancer activity in mock transfected HEK293. To be noted: Bcr-Abl negative. It counts as cell-based.
Assay [3] addresses T2, EGFR(L858R) (Homo sapiens, UniProt P00533, L858R). To be noted: 10 μM.
The target in a further assay is T3, FLT3(D835Y) (Homo sapiens, UniProt P36888, D835Y).
T3 sequence (P36888 27-993 D835Y): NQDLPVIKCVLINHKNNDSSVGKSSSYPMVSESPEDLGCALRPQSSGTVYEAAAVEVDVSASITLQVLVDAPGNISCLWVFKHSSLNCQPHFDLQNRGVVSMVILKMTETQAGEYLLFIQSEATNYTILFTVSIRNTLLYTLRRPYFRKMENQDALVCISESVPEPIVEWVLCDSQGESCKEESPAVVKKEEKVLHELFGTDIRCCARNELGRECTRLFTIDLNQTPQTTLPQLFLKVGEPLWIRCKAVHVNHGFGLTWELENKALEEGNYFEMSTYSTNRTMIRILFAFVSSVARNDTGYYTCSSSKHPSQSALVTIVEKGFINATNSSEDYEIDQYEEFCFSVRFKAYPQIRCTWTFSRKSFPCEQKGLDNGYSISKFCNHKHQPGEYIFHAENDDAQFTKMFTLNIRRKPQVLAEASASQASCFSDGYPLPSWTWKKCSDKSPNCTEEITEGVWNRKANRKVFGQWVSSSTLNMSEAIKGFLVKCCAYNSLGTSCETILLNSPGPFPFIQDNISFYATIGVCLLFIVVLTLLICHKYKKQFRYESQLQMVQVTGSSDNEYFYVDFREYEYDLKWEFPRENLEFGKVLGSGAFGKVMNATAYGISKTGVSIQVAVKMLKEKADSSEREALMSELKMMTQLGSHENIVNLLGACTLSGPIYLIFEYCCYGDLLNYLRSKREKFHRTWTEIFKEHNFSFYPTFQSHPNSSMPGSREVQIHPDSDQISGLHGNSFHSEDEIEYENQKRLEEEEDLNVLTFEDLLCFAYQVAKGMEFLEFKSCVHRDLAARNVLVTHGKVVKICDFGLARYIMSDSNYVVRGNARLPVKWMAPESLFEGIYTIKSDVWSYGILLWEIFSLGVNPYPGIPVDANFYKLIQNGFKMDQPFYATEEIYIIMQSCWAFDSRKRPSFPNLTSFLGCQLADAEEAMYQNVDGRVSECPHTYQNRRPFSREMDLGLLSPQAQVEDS
The experiment in a line: biochemical. To be noted: read-out: Percent control.

The target of a further assay is T4, EPHA1 (Homo sapiens, UniProt P21709).
T4 sequence (P21709 26-976): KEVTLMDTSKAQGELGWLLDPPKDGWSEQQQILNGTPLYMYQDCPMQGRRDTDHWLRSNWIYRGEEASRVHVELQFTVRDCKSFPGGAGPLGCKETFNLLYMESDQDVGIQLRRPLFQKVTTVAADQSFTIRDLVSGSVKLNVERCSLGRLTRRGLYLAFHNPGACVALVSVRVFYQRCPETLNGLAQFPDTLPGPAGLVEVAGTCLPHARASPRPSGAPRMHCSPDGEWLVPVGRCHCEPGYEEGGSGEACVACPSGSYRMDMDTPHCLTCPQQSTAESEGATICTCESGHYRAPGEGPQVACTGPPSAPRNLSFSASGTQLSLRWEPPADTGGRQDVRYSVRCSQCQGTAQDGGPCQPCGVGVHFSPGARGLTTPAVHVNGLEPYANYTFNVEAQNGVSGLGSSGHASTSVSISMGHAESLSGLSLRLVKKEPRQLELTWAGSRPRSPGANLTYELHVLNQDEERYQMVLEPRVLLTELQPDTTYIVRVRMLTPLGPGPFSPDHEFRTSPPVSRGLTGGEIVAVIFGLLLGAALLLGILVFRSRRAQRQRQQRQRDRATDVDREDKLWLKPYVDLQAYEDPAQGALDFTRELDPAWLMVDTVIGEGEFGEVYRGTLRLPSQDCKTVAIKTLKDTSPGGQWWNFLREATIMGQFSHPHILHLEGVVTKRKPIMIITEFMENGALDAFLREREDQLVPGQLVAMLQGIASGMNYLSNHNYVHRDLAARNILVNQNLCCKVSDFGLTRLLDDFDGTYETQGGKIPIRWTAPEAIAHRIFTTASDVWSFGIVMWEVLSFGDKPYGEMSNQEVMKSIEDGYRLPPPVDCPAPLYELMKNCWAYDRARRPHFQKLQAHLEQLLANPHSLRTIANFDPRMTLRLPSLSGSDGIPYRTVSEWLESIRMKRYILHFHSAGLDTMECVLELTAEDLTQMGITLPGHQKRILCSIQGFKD
In words: biochemical. The settings on record: read-out: Percent control.

Assay [4] addresses ABL1(T315I)-nonphosphorylated (Homo sapiens, UniProt P00519, T315I). To be noted: 10 μM.
The target in assay [5] is ABL1(Q252H)-nonphosphorylated (Homo sapiens, UniProt P00519, Q252H). The settings on record: 10 μM.
Assay [6] concerns the target ABL1(F317L)-phosphorylated (Homo sapiens, UniProt P00519, F317L). The settings on record: 10 μM.
In assay [7] the target is ABL1(Y253F)-phosphorylated (Homo sapiens, UniProt P00519, Y253F). To be noted: 10 μM.
Assay [8] deals with ABL1(T315I)-phosphorylated (Homo sapiens, UniProt P00519, T315I). To be noted: 10 μM.
Assay [9] has as its target T2, EGFR(L858R). The experiment in a line: biochemical. The settings on record: read-out: Percent control.
The next assay addresses EGFR (Homo sapiens, UniProt P00533). The experiment in a line: biochemical. To be noted: read-out: Percent control.

T2 sequence (P00533 25-1210 L858R): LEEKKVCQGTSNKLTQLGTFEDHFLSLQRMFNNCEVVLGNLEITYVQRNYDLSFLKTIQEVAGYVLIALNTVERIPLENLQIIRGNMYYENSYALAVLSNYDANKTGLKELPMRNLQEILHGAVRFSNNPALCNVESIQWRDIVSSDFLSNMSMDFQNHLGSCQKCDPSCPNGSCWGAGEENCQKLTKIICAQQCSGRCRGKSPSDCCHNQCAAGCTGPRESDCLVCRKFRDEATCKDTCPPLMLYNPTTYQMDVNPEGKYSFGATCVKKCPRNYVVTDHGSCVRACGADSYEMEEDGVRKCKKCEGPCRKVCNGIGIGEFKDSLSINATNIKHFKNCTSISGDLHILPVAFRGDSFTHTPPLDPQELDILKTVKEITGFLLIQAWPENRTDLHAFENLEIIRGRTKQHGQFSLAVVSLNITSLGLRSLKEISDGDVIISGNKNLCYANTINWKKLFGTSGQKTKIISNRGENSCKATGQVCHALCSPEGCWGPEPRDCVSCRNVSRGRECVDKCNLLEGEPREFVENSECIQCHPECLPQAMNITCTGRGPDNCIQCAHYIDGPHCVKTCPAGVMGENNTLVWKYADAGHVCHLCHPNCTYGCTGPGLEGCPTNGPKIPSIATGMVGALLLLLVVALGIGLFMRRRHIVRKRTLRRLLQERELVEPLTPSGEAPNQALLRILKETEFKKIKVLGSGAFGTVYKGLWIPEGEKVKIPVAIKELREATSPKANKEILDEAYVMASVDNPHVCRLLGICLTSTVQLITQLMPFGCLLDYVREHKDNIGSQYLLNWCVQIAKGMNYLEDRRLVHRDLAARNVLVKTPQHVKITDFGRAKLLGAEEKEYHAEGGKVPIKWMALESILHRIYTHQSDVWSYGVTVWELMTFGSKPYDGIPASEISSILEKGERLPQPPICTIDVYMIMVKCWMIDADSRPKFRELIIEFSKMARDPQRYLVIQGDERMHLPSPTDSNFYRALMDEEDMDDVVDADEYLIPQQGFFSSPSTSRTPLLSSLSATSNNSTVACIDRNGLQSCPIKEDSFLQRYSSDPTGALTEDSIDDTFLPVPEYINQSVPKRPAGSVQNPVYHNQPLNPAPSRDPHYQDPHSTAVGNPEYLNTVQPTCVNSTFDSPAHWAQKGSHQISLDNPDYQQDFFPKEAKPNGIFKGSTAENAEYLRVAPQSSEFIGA
ALK, sequence (Q9UM73 19-1620): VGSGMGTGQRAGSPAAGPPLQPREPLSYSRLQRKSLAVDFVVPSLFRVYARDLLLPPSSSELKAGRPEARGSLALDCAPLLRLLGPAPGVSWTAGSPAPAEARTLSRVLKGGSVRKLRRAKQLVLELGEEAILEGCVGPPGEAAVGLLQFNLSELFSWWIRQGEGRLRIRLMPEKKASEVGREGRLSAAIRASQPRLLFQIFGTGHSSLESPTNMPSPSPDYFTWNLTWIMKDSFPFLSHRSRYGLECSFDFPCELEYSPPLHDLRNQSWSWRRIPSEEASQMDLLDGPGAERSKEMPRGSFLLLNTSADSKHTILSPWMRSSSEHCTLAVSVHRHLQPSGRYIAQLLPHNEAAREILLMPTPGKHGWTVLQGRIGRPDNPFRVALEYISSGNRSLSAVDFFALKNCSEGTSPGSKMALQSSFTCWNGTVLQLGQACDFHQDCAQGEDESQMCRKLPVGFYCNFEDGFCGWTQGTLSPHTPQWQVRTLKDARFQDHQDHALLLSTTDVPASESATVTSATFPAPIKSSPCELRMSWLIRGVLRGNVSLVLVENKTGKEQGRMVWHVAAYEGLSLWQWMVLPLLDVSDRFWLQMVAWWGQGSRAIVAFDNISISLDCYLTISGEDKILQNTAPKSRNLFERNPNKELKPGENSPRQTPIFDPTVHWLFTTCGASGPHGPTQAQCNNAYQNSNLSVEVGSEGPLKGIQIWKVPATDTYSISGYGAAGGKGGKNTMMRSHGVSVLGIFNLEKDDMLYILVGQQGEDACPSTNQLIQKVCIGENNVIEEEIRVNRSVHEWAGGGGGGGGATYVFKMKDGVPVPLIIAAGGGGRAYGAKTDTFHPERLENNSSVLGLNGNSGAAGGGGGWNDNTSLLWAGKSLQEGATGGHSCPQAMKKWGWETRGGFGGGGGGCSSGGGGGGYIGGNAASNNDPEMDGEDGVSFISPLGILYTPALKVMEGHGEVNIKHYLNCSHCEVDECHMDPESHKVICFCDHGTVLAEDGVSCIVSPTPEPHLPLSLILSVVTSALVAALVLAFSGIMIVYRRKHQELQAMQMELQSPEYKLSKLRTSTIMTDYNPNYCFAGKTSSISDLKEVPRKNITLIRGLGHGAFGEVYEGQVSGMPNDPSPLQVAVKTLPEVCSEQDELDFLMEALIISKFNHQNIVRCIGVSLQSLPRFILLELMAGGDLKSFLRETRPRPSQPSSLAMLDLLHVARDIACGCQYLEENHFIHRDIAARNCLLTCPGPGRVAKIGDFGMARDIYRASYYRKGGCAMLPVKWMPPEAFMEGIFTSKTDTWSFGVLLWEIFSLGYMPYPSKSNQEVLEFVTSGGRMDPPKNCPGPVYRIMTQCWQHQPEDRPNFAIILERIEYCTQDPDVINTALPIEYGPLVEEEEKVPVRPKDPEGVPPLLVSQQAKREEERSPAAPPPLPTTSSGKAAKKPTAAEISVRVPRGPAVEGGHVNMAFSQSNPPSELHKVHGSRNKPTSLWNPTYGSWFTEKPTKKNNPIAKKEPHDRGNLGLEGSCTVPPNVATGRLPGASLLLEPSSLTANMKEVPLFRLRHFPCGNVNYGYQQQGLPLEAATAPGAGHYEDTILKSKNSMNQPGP
T1 sequence (P35590 22-1138): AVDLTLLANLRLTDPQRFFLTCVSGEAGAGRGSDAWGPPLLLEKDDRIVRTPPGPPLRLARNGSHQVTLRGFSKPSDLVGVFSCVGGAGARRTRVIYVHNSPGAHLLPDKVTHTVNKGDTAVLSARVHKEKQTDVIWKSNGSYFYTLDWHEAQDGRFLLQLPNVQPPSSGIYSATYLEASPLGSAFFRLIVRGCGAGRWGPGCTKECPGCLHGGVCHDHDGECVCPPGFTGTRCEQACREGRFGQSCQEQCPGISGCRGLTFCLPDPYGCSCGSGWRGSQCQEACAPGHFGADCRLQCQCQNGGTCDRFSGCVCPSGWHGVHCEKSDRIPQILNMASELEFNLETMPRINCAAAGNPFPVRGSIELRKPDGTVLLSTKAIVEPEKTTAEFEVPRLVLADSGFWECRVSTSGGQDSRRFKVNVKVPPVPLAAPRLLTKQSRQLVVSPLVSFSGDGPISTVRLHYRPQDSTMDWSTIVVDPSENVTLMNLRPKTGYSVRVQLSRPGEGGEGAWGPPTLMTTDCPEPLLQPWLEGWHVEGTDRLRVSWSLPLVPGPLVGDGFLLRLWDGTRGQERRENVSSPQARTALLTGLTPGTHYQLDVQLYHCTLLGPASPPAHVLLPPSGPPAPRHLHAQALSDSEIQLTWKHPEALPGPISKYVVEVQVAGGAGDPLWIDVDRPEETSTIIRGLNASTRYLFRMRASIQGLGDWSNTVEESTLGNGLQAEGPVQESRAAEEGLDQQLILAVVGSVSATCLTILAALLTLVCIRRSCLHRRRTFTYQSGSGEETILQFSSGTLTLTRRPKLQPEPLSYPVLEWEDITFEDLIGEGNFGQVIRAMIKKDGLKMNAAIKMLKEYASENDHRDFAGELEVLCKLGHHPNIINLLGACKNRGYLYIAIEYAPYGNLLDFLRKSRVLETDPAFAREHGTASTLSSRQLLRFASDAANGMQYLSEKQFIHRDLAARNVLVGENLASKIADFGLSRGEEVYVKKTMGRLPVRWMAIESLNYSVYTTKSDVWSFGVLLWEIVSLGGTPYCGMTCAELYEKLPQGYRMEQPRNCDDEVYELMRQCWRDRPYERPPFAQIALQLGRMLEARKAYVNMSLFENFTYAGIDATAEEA
EGFR, sequence (P00533 25-1210): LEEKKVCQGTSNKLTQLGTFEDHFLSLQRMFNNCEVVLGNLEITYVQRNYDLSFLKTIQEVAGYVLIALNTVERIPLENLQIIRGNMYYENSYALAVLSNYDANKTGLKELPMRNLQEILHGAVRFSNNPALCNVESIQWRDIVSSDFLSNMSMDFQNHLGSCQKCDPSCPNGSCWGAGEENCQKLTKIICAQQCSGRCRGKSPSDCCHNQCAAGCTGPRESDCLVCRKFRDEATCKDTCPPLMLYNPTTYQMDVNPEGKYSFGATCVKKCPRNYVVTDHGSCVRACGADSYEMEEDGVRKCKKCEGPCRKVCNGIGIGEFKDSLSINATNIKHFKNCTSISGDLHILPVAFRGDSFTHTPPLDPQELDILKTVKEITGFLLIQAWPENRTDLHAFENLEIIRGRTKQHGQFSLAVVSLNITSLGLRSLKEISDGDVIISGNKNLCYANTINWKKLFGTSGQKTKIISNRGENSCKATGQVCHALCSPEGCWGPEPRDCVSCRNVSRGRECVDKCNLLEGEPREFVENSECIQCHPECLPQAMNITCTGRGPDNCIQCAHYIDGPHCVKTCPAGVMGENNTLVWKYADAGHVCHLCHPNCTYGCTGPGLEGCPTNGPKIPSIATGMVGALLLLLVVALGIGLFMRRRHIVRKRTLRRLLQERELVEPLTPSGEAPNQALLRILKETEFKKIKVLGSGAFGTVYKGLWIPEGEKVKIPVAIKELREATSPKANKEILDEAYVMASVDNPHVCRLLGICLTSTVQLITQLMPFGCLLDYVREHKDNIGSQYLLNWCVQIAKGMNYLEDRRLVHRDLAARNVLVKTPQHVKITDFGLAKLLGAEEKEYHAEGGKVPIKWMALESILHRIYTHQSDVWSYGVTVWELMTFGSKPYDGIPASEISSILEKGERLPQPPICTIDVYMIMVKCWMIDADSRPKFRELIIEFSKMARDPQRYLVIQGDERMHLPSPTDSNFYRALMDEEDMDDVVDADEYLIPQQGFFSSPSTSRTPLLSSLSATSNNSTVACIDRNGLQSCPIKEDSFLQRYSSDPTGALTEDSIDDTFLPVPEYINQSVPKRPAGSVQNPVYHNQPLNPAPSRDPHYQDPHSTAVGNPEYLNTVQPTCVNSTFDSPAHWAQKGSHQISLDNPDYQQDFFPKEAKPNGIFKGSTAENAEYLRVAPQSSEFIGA

For the compound `C#Cc1cccc(Nc2ncnc3cc(OCCOC)c(OCCOC)cc23)c1` [Erlotinib], the remaining activity at 10 µM at ALK amounted to 10.7%; in assay [1], 45.1%; in assay [2], 0.6%.

By IC50 is commonly meant the point on the concentration scale where inhibition reaches its midpoint. For `Cc1ccc(NC(=O)c2ccc(CN3CCN(C)CC3)cc2)cc1Nc1nccc(-c2cccnc2)[n+]1[Pt-2]1([Cl])[NH2+]C2CCCCC2[NH2+]1` (stereo not shown) [1b, oxaliplatin-imatinib], the half-maximal inhibitory concentration (IC50) in the assay on K562 Ima1.0 turned out to be 2.92 ± 0.93 µM; in the assay with HEK293 Mock transfected it was 10.6 ± 1.58 µM. Besides, the Percent control at TIE1 is listed as 100%; on EGFR(L858R) [3], 81%.

For the compound `COc1cc2c(Nc3ccc(Br)cc3F)ncnc2cc1OCC1CCN(C)CC1` [Vandetanib, reference compound], the values for the remaining activity at 10 µM at FLT3(D835Y) and at EPHA1 were 7.7% and 2.2%, respectively.

Consider `C#Cc1cccc(Nc2c3cc(OCCOC)c(OCCOC)cc3nc[n+]2[Pt@SP2-2]([NH3+])([NH3+])[Cl])c1` [2a, cisplatin-erlotinib], for which the Percent control was 41% in assay [4]; 13% in assay [5]; 25% in assay [6]; 16% in [7]; 30% in [8].

Take `Cc1ccc(NC(=O)c2ccc(CN3CCN(C)CC3)cc2)cc1Nc1nccc(-c2cccnc2)n1` [Imatinib, reference compound]: the remaining activity at 10 µM on EGFR(L858R) [9] and on EGFR was 100% each time.
